Results as given in publication PMC6182381, “Population Pharmacokinetics and Exposure-Response Relationships of Naldemedine” (Pharmaceutical Research, 2018).
Where two headings read alike, the source gives them in different places.

Assays:
[1] = test system: patients with chronic non-cancer pain and OIC; test: SBM responder, phase 2b study 1107 V9221 (observed and PK/Efficacy logistic model); format: in vivo, human; conditions: for SBM responder, Observation / SBM responder, Prediction: 1107V9221 (Phase 2b); for SBM Non_Responder frequency / SBM Responder frequency: PK/efficacy population, 1107 V9221 (Phase 2b); for Predicted probability of SBM responder: Phase 2b model
Excerpt: (§1) Exposure-response analysis was used to evaluate the efficacy and safety data of the phase 2b and phase 3 studies ([2],[5]). The PK/Efficacy analysis included the subjects of the population PK analysis or in the placebo group, who also had efficacy data for the exposure-response analysis obtained from phase 2b and phase 3 studies (1107 V9221, 1314 V9231, and 1315 V9232). The PK/Safety analysis included the subjects of the population PK analysis or in the placebo group, who also had safety data for exposure-response analysis obtained from phase 2b and phase 3 studies (1107 V9221, 1314 V9231, and 1315 V9232).
(§2) The following efficacy variables were used to evaluate the exposure-response relationship. […] In the phase 3 studies (Study No. 1314 V9231 and 1315 V9232), an SBM responder was defined as having 9 positive response weeks or more out of the 12-weeks treatment period and 3 positive response weeks out of the last 4 weeks of the 12-weeks treatment period. A positive response week was defined as a week with both ≥3 SBMs and an increase of ≥1 SBM from the baseline. A subject with any insufficient response data was treated as a “non-responder”. The occurrence of treatment-emergent adverse events of gastrointestinal disorders as system organ class, which was the most frequently occurring type, was defined by the severity and assessed as safety variables.
(§3) No covariate was tested in the exposure-response analysis because no prognostic factors of the efficacy or safety were identified in the phase 2b and phase 3 studies ([2],[5]). Efficacy and safety data in Study No. 1314 V9231 and 1315 V9232 were combined because these studies were conducted as pivotal phase 3 studies using the same study design and were of the same treatment duration. The individual AUCss values for naldemedine were estimated by empirical Bayes estimation based on the population PK model. AUCss values of the subjects in the placebo group were treated as zero (0). For efficacy (responder or non-responder) and safety (occurrence of gastrointestinal disorders or not) variables, relationships to PK parameters were examined using the logistic model as shown in Eq. (3) with SAS (Version 9.2, SAS Institute).3 Probabilityefficacy or safety event=1/1+exp−a−b×PKparameter where a and b are the parameters to be estimated.

[2] = test system: patients with chronic non-cancer pain and OIC; test: SBM responder, phase 3 studies 1314 V9231 and 1315 V9232 (observed and PK/Efficacy logistic model); format: in vivo, human; conditions: for Predicted probability of SBM responder: Phase 3 model
Excerpt: as §1, §2, §3

[3] = test system: patients with chronic non-cancer pain and OIC; test: Adverse events / gastrointestinal disorders, phase 2b study 1107 V9221 (observed and PK/Safety logistic model); format: in vivo, human; conditions: for Gastrointestinal disorders, Mild / Gastrointestinal disorders, Moderate / Gastrointestinal disorders, Not_Reported / Gastrointestinal disorders, Severe: PK/safety population, 1107 V9221 (Phase 2b); for Predicted probability of gastrointestinal disorders: Phase 2b model; for Predicted probability of gastrointestinal disorders / Gastrointestinal disorders, Observation / Gastrointestinal disorders, Prediction: Moderate, Severe; for Gastrointestinal disorders, Observation / Gastrointestinal disorders, Prediction: Phase 2b
Excerpt: as §1, §2, §3

[4] = test system: patients with chronic non-cancer pain and OIC; test: Adverse events / gastrointestinal disorders, phase 3 studies 1314 V9231 and 1315 V9232 (observed and PK/Safety logistic model); format: in vivo, human; conditions: for Predicted probability of gastrointestinal disorders: Phase 3 model
Excerpt: as §1, §2, §3

[5] = design: method as in PMID 28466424, PMID 28960888; conditions: cited from earlier work
[6] = test system: patients with chronic non-cancer pain and OIC; design: method as in PMID 28371937; conditions: Study 1107 V9221 (Phase 2b), cited from earlier work
[7] = test system: patients with chronic non-cancer pain and OIC; design: method as in PMID 28371937; conditions: Phase 2b, cited from earlier work
[8] = 1314V9231 and 1315V9232 (Phase 3), 0.2 mg
[9] = PK/efficacy population, 1314 V9231 and 1315 V9232 (Phase 3), 0.2 mg
[10] = PK/safety population, 1314 V9231 and 1315 V9232 (Phase 3), 0.2 mg
[11] = Phase 3, Mild, Moderate, Severe, 0.2 mg
[12] = Phase 3, Moderate, Severe, 0.2 mg

## CC(C)(NC(=O)C1=C(O)[C@@H]2Oc3c(O)ccc4c3[C@@]23CCN(CC2CC2)[C@H](C4)[C@]3(O)C1)c1nc(-c2ccccc2)no1 [naldemedine]
[1]; 0.2 mg, phase 2b study 1107 V9221
  predicted probability of SBM responders: 52.7%
[1]; 0.1 mg
  SBM responder, Observation: 55.6
  SBM responder, Prediction: 47.4
  SBM Non_Responder frequency: 4 (44.4) Count (Percent)
  SBM Responder frequency: 5 (55.6) Count (Percent)
[1]; 0.2 mg
  SBM responder, Observation: 66.7
  SBM responder, Prediction: 52.7
  SBM Non_Responder frequency: 3 (33.3) Count (Percent)
  SBM Responder frequency: 6 (66.7) Count (Percent)
[1]; 0.4 mg
  SBM responder, Observation: 60.0
  SBM responder, Prediction: 63.0
  SBM Non_Responder frequency: 4 (40.0) Count (Percent)
  SBM Responder frequency: 6 (60.0) Count (Percent)
[1]; Dose: 0.1 mg
  Predicted probability of SBM responder: 0.474
[1]; Dose: 0.2 mg
  Predicted probability of SBM responder: 0.527
[1]; Dose: 0.4 mg
  Predicted probability of SBM responder: 0.630
[2]; 0.2 mg once daily, phase 2b and phase 3 studies
  predicted probability of SBM responders: approximately 50%
[2]; 0.2 mg, phase 3 studies 1314 V9231 and 1315 V9232
  predicted probability of SBM responders: 49.9%
[2]; [8]
  SBM responder, Observation: 53.3
  SBM responder, Prediction: 49.9
[2]; [9]
  SBM Non_Responder frequency: 208 (46.7) Count (Percent)
  SBM Responder frequency: 237 (53.3) Count (Percent)
[2]; Dose: 0.1 mg
  Predicted probability of SBM responder: 0.433
[2]; Dose: 0.2 mg
  Predicted probability of SBM responder: 0.499
[2]; Dose: 0.4 mg
  Predicted probability of SBM responder: 0.630
[3]; 0.1 mg
  Gastrointestinal disorders, Mild: 1 (11.1) Count (Row percent)
  Gastrointestinal disorders, Moderate: 1 (11.1) Count (Row percent)
  Gastrointestinal disorders, Not_Reported: 7 (77.8) Count (Row percent)
  Gastrointestinal disorders, Severe: 0 (0.0) Count (Row percent)
  Gastrointestinal disorders, Observation: 11.1
  Gastrointestinal disorders, Prediction: 7.8
[3]; 0.2 mg
  Gastrointestinal disorders, Mild: 1 (11.1) Count (Row percent)
  Gastrointestinal disorders, Moderate: 3 (33.3) Count (Row percent)
  Gastrointestinal disorders, Not_Reported: 5 (55.6) Count (Row percent)
  Gastrointestinal disorders, Severe: 0 (0.0) Count (Row percent)
  Gastrointestinal disorders, Observation: 33.3
  Gastrointestinal disorders, Prediction: 10.1
[3]; 0.4 mg
  Gastrointestinal disorders, Mild: 2 (20.0) Count (Row percent)
  Gastrointestinal disorders, Moderate: 1 (10.0) Count (Row percent)
  Gastrointestinal disorders, Not_Reported: 7 (70.0) Count (Row percent)
  Gastrointestinal disorders, Severe: 0 (0.0) Count (Row percent)
  Gastrointestinal disorders, Observation: 10.0
  Gastrointestinal disorders, Prediction: 16.5
[3]; Mild, Dose: 0.1 mg
  Predicted probability of gastrointestinal disorders: 0.195
[3]; Mild, Dose: 0.2 mg
  Predicted probability of gastrointestinal disorders: 0.254
[3]; Mild, Dose: 0.4 mg
  Predicted probability of gastrointestinal disorders: 0.403
[3]; Dose: 0.1 mg
  Predicted probability of gastrointestinal disorders: 0.078
[3]; Dose: 0.2 mg
  Predicted probability of gastrointestinal disorders: 0.101
[3]; Dose: 0.4 mg
  Predicted probability of gastrointestinal disorders: 0.165
[3]; Mild, 0.1 mg
  Gastrointestinal disorders, Observation: 22.2
  Gastrointestinal disorders, Prediction: 19.5
[3]; Mild, 0.2 mg
  Gastrointestinal disorders, Observation: 44.4
  Gastrointestinal disorders, Prediction: 25.4
[3]; Mild, 0.4 mg
  Gastrointestinal disorders, Observation: 30.0
  Gastrointestinal disorders, Prediction: 40.3
[4]; 0.2 mg and 0.4 mg, phase 3 study
  predicted probability of severe gastrointestinal disorders: less than 3%
[4]; 0.2 mg once daily
  predicted probability of severe gastrointestinal disorders: less than 3%
[4]; 0.2 mg, phase 3
  predicted probability of mild to severe gastrointestinal disorders: 19.3%
  predicted probability of moderate to severe gastrointestinal disorders: 8.3%
  predicted probability of severe gastrointestinal disorders: 1.8%
[4]; [10]
  Gastrointestinal disorders, Mild: 52 (11.7) Count (Row percent)
  Gastrointestinal disorders, Moderate: 34 (7.6) Count (Row percent)
  Gastrointestinal disorders, Not_Reported: 351 (78.9) Count (Row percent)
  Gastrointestinal disorders, Severe: 8 (1.8) Count (Row percent)
[4]; [11]
  Gastrointestinal disorders, Observation: 21.1
  Gastrointestinal disorders, Prediction: 19.3
[4]; [12]
  Gastrointestinal disorders, Observation: 9.4
  Gastrointestinal disorders, Prediction: 8.3
[4]; Phase 3, Severe, 0.2 mg
  Gastrointestinal disorders, Observation: 1.8
  Gastrointestinal disorders, Prediction: 1.8
[4]; Mild, Moderate, Severe, Dose: 0.1 mg
  Predicted probability of gastrointestinal disorders: 0.172
[4]; Mild, Moderate, Severe, Dose: 0.2 mg
  Predicted probability of gastrointestinal disorders: 0.193
[4]; Mild, Moderate, Severe, Dose: 0.4 mg
  Predicted probability of gastrointestinal disorders: 0.242
[4]; Moderate, Severe, Dose: 0.1 mg
  Predicted probability of gastrointestinal disorders: 0.071
[4]; Moderate, Severe, Dose: 0.2 mg
  Predicted probability of gastrointestinal disorders: 0.083
[4]; Moderate, Severe, Dose: 0.4 mg
  Predicted probability of gastrointestinal disorders: 0.113
[4]; Severe, Dose: 0.1 mg
  Predicted probability of gastrointestinal disorders: 0.015
[4]; Severe, Dose: 0.2 mg
  Predicted probability of gastrointestinal disorders: 0.018
[4]; Severe, Dose: 0.4 mg
  Predicted probability of gastrointestinal disorders: 0.027
[5]; AUC Day 1 vs AUCss Day 10, multiple dose study
  time dependence of PK: time-independent
[5]; dose range 0.1 mg to 100 mg
  dose proportionality of systemic exposure: almost dose proportional
[5]; multiple dose study, 3 mg, 10 mg and 30 mg, trough Days 2 to 10
  time to reach steady state: ≤ 2 days
[6]; 0.1 mg
  proportion of SBM responders: 52.5%
[6]; 0.2 mg
  proportion of SBM responders: 71.2%
[6]; 0.4 mg
  proportion of SBM responders: 66.7%
[7]; 0.1 mg
  Treatment-emergent adverse events: 66.1%
[7]; 0.2 mg
  Treatment-emergent adverse events: 67.2%
[7]; 0.4 mg
  Treatment-emergent adverse events: 78.6%
